Legend:
M6PR [1] = assay: M6PR staining in patient derived xenografts (PDX); type: in vivo, mice; settings: PDX from four patients (4237, 3929, 4070, 4298); treated for 3 weeks
Procedure: FIGS. 11A, 11B, and 11 C show M6PR expression in patients treated with vemurafenib plus ACT with TIL. […] Mice with PDX were left untreated for 4 weeks (untreated), or treated for 3 weeks with corresponding single agent BRAFi (PLX-PLX4720) or combination with MEKi (CPLX-PLX4720 and PD0325901). Tissues were stained for M6PR and intensity of staining was assessed in 8 fields. Typical example of staining (scale bar=25 μm) and statistical analysis are shown. Intensity was normalized to untreated samples. Mean and SD for 8 fields are shown. P values were calculated in unpaired Student's t-test. […] H-score results are shown. P value is shown in paired twotailed Student's t test.
To test the effect of therapy on M6PR expression in clinical samples, we established patient derived xenografts (PDX) from four patients who were either treatment naïve (4237, 3929), or progressed on BRAFi (4070) or combination of BRAFi and MEKi (4298). Mice with PDX were left untreated or treated for 3 weeks with single agent BRAFi (PLX-PLX4720) or combination with MEKi (CPLXPLX4720 and PD0325901).

M6PR [2] = assay: IHC staining of M6PR in WM35-BR tumors in NOD/SCID mice; type: in vivo
Procedure: Tumor tissues were harvested, fixed overnight with 4% paraformaldehyde (Electron Microscopy Science; Cat. no. 15710) at 4° C., embedded in paraffin blocks and 4-5 μm thick sections of the tissue were prepared and stained with polyclonal goat M6PR/IGF2R primary antibody (R&D Systems; Cat. no. AF2447; 5 μg/mL per samples) O/N at 4° C. Biotinylated 2nd antibody in 1:200 dilution was used for 30 min at RT followed by application of ABC solution (avidin dehydroxygenase and biotinylated horseradish peroxidase) for 30 min at RT. DAB 0.05% solution was applied for 3-4 min at RT. Hematoxylin was used for counterstaining the nucleus. Images were analyzed using Nis-Elements Ar (Advanced Research) Nikon 80i Upright Microscope with 40×N.A. objective. Each slide was scanned, images were manually captured at separate X, Y locations and a multipoint ND document was created point by point. A threshold value was defined for each image (for brown M6PR staining) using the single point selection tool. […]
WM35-BR tumor cells were injected subcutaneously to the flank of NOD/SCID mice and once the average tumor area reached around 40-50 mm2 in size, mice were treated with vehicle or 50 mg/kg PLX4720 by oral gavage for 5 days. After 5 days of PLX4720 treatment, tumors were harvested at different time points and M6PR expression in tumor tissues was detected by IHC staining.

WM35-BR cells [3] = assay: CTL assay (51Cr release), WM35-BR targets with HLA-matched TIL; type: cell-based, human; settings: overnight treatment
Procedure: For Chromium (^51Cr) release assays, 1×10^6 human melanoma cells were incubated with 100 μCi ^51Cr (Perkin-Elmer; Cat. no. NEZ030S001MC; 1 mCi/mL) at 37° C. for 60 minutes, washed 3 times with sterile PBS and plated into 96-well round-bottom plates at a cell density of 1×10^4 tumor target cells/well. Target cells were incubated with human CD8+ TILs in triplicates at the indicated effector/target (E) ratios in 200 μl culture medium at 37° C. in a humidified CO2 incubator. After incubation, plates were centrifuged, 50 μl supernatant was harvested from each well and ^51Cr release was measured using a gamma counter. The percent specific lysis was calculated as follows: 100×[(experimental release−spontaneous release)/(maximum release−spontaneous release)]. As controls, T cells isolated from blood of healthy donor were used.

WM35-BR cells [4] = assay: Tumor growth of WM35-BR xenografts in NOD/SCID mice; type: in vivo; settings: PLX4720 50 mg/kg for 10 days, TIL i.v. twice at a 4 day interval
Procedure: In order to establish xenograft models, cultured WM35, WM35-BR, WM983B-BR-pAHygCMV2 and WM983B-BR-M6PR/IGF2R cells were harvested, suspended in sterile PBS, mixed in 2:1 ratio with Matrigel and injected subcutaneously into the left flank of mice (1-3×10^6 cells per mouse). PLX4720 was administered daily at dose 50 mg/kg for 10 days via oral gavage. As a control, mice treated with vehicle alone (2% DMSO, 50% PEG 300, 5% Tween 80) were used. Treatments were started when tumors were 0.5-0.8 cm in diameter.
We next tested whether PLX-induced M6PR up-regulation on the cell surface of resistant cells sensitized them to HLA-matched TIL. […] We asked whether BRAFi could sensitize resistant tumors to TILs in vivo. WM35-BR cells were injected subcutaneously to the flanks of immune deficient NOD/SCID mice and when tumors became palpable, mice were split to 4 groups. Mice treated with vehicle alone, mice treated with 50 mg/kg PLX4720 for 10 days, mice treated with CD8+ T-cell enriched TIL i.v. twice at a 4 day interval and mice treated with combination of PLX4720 and TILs.

M6PR [5] = assay: Cell surface M6PR expression by flow cytometry in PLX4720-resistant WM983B-BR cells; type: cell-based, human
Procedure: WM35 human melanoma and HLA-matched human tumor infiltrating lymphocytes (TIL) were generated at H. Lee Moffitt Cancer Center and Research Institute, Tampa, Fla., USA). Human melanoma cells lines WM983B and WM983B-BR were maintained in Dulbecco's Modified Eagles medium (DMEM) (Gibco), other human melanoma cell lines were maintained in RPMI medium supplemented with 10% fetal bovine serum (FBS, Sigma-Aldrich, St. Louis, Mo.) and 1% Pen/Strep (Corning; Cat. no. 30-002-Cl) at 37° C., 5% CO2. PLX4720-resistant cells were kept in cell culture media supplemented with 1 μM PLX4720 to keep these cells resistant against the drug. 350 μg/mL Hygromycin B (Invitrogen; Cat. no. 10687010) was kept in the culture media of WM983B-BR-pAHygCMV2, WM983B-BR-M6PR/IGF2R, WM35-pAHygCMV2, WM35-M6PR/IGF2R cells after transfection. Tumor cell lines were tested for mycoplasma contamination by using Universal Mycoplasma detection kit (ATCC) regularly. Human melanoma cells were treated with 1-10 μM PLX4720 (Selleckchem; Cat. no. S1152), 25-100 nmol/mL (nM) Trametinib (Selleckchem; Cat. no. S2673). Hypoxia (0.5% 02) was maintained using hypoxic chamber (BioSpherix).
M6PR expression levels were detected by flow cytometry. […] Cells were fixed using 1% paraformaldehyde for 20 minutes at 4° C. before running them on LSR14. Data was analyzed by FlowJo software (Tree Star).
To maintain consistency with the results obtained on sensitive cell lines and to better assess the effect of BRAFi on the sensitivity of tumor cells to CTLs, we generated an additional BRAFi resistant cell line WM35-BR by exposing WM35 cells to increased concentrations of PLX4720. Resistant cell lines (WM983B-BR and WM35-BR) were treated with 1 μM or 10 μM PLX4720 for different times, and cell surface M6PR levels were determined by flow cytometry.

WM35 cells = assay: Granzyme B (GrzB) uptake by WM35 cells; type: cell-based, human; settings: overnight PLX4720, then inactive GrzB for an hour
WM983B-M6PR-KO cells [6] = assay: Granzyme B (GrzB) uptake by WM983B-M6PR-KO cells; type: cell-based, human; settings: WM983B-M6PR-KO (absence of M6PR); overnight, then inactive GrzB 1 hour
Procedure: Cells were then stained with Aqua dead cell staining kit (Thermo Fischer Scientific) for 15 min at 4° C. fixed in fixation buffer (BD Cytofix/Cytoperm; Cat. no. 51-2090). Granzyme B antibody (Cat. no. 561142) or its isotype control (BD Bioscience; Cat. no. 555749) were used. Stained cells were run on LSR14. Data was analyzed by FlowJo software (Tree Star).
To investigate if M6PR has a direct role in the increased uptake of GrzB induced by PLX4720, we generated a WM983B-M6PR-KO cell line lacking M6PR expression, using Crispr/Cas9 technology. Deletion of M6PR was confirmed by western blotting (FIG. 8A) and flow cytometry (FIG. 8B). WM983B and WM983B-M6PR-KO cells were cultured with DMSO or different concentrations of PLX4720. […] To test the sensitivity of WM983B cells to CTLs, we expanded TILs isolated from a HLA-A1+ patient with metastatic melanoma. These TILs recognized HLA-A1+WM983B cells. As targets, we used WM983B and WM983B-M6PR-KO cells. […] BRAFi sensitive and resistant WM983B cells were recognized by CTLs equally well (FIG. 8E). […] Herein was asked whether manipulation with expression of M6PR could affect expression of molecules associated with antigen presentation and regulation of immune responses by tumor cells. We evaluated expression of MHC class I, MHC class II, PDL1, and FasL on tumor cells with overexpression or deletion of M6PR.

[7] = tested on: BRAFV600E mouse melanoma transplants; settings: in vivo; cited from earlier work
WM983B-M6PR-KO cells [8] = assay: CTL assay (51Cr release), WM983B-M6PR-KO targets with TILs; type: cell-based, human; settings: WM983B-M6PR-KO treated ON with PLX4720
Procedure: For Chromium (^51Cr) release assays, 1×10^6 human melanoma cells were incubated with 100 μCi ^51Cr (Perkin-Elmer; Cat. no. NEZ030S001MC; 1 mCi/mL) at 37° C. for 60 minutes, washed 3 times with sterile PBS and plated into 96-well round-bottom plates at a cell density of 1×10^4 tumor target cells/well. Target cells were incubated with human CD8+ TILs in triplicates at the indicated effector/target ([…]) ratios in 200 μl culture medium at 37° C. in a humidified CO2 incubator. After incubation, plates were centrifuged, 50 μl supernatant was harvested from each well and ^51Cr release was measured using a gamma counter. The percent specific lysis was calculated as follows: 100×[(experimental release−spontaneous release)/(maximum release−spontaneous release)]. As controls, T cells isolated from blood of healthy donor were used.
To investigate if M6PR has a direct role in the increased uptake of GrzB induced by PLX4720, we generated a WM983B-M6PR-KO cell line lacking M6PR expression, using Crispr/Cas9 technology. Deletion of M6PR was confirmed by western blotting (FIG. 8A) and flow cytometry (FIG. 8B). WM983B and WM983B-M6PR-KO cells were cultured with DMSO or different concentrations of PLX4720. […] We evaluated expression of MHC class I, MHC class II, PDL1, and FasL on tumor cells with overexpression or deletion of M6PR.

WM35-BR cells [9] = assay: Granzyme B (GrzB) uptake by WM35-BR cells; type: cell-based, human; settings: 10 μM overnight, then inactive GrzB one hour

## CCCS(=O)(=O)Nc1ccc(F)c(C(=O)c2c[nH]c3ncc(Cl)cc23)c1F [PLX4720]
M6PR [1]
  M6PR in tumors (PDX): marked up-regulation of M6PR in tumors
M6PR [2]; 50 mg/kg oral gavage for 5 days
  M6PR in tumor tissues by IHC: marked up-regulation of M6PR in tumor tissues, which was lower than that observed in sensitive cell lines
M6PR [2]; compared with sensitive lines
  M6PR expression after treatment was stopped: decreased more rapidly after treatment was stopped
WM35-BR cells [3]
  sensitivity of tumor cells to TIL in cytotoxicity assay: increased sensitivity of tumor cells to TIL
WM35-BR cells [4]
  tumor growth: did not affect tumor growth
M6PR [5]; BRAF resistant cells (WM983B-BR), hypoxia
  M6PR expression under hypoxia: increased M6PR expression
M6PR [5]; WM983B-BR, 1 μM or 10 μM PLX4720
  M6PR on the cell surface: further substantial up-regulation of MP6R on the cell surface
M6PR [5]; WM983B-BR, 24 hours
  M6PR levels after 24 hours of treatment: did not decrease to pre-treatment levels
WM35 cells
  GrzB uptake by tumor cells: significant up-regulation of GrzB uptake
WM983B-M6PR-KO cells [6]
  PLX4720-inducible GrzB uptake: up-regulation of GrzB uptake was abrogated
[7]
  CD8+T/FoxP3+CD4+ T cell ratio and NK cells: robust increase in the CD8+T/FoxP3+CD4+ T cell ratio and in NK cells
  tumor CCL2 expression: decreased tumor CCL2 expression
  tumor immunogenicity: did not directly increase tumor immunogenicity
WM983B-M6PR-KO cells [8]
  killing of tumor cells by TILs: this effect was not observed
WM35-BR cells [9]
  intracellular GrzB levels: significantly higher amount of GrzB than DMSO treated cells

From US20220125839A1, “COMBINATION OF T-CELL THERAPY AND TARGETED THERAPY FOR TREATING THERAPY-RESISTANT MELANOMA WITH MUTATIONS IN THE BRAF GENE” (H. LEE MOFFITT CANCER CENTER AND RESEARCH INSTITUTE, INC., priority 2019, published 2022)
